Starred links: 1 amine or outer side, 2 acyl side, 3 side chain; linkers in the order of their positions; H or OH if unused. Positions of bridges follow the written chain, without caps; N, C: chain ends. Non-standard residues stand in square brackets, D forms with d. Residues, ends and D or L forms follow the SMILES beside them. *: point of attachment. Phe(4-guanidino) = N=C(N)Nc1ccc(C[C@H](N)C(=O)O)cc1; X7 = CC(=O)NCS(=O)(=O)C[C@H](N[*:1])C(=O)[*:2]; Decanoyl(3,6,9-trioxa) = COCCOCCOCC(=O)*; X4 = O=C([C@H](CNC1=NCCN1)N[*:1])[*:2]; Bta = N[C@@H](Cc1csc2ccccc12)C(=O)O; Hydrocinnamoyl = O=C(CCc1ccccc1)*; Hyp = O=C(O)[C@@H]1C[C@@H](O)CN1; d(hLeu) = CC(C)CC[C@@H](N)C(=O)O; Cit = NC(=O)NCCC[C@H](N)C(=O)O; dCha = N[C@H](CC1CCCCC1)C(=O)O; Aic = NC1(C(=O)O)Cc2ccccc2C1; Chg = N[C@H](C(=O)O)C1CCCCC1; Nicotinoyl = O=C(c1cccnc1)*; Nle = CCCC[C@H](N)C(=O)O; Orn = NCCC[C@H](N)C(=O)O

The first experiment concerns the target T1, human C5aR(CD88) (Homo sapiens, UniProt P21730).
T1 construct: expressed in transfected cells; host or cells: rat basophilic leukemia cells (RBL)
T1 sequence (P21730 1-350): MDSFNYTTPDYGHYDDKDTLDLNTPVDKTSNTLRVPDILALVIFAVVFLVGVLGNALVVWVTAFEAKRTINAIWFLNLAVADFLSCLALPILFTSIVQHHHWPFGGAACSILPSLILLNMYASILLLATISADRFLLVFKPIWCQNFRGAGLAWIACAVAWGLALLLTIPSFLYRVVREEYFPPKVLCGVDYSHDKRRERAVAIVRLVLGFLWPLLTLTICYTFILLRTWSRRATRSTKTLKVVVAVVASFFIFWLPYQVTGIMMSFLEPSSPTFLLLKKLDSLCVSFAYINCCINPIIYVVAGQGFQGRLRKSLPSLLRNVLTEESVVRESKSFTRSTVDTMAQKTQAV
Kind of experiment: Determination of the IC50 value in an enzyme release assay (functional assay, antagonistic activity). The class given is cell-based. As to conditions: antagonistic activity; IC50 group in enzyme release assay, RBL cells expressing human C5aR(CD88); read-out: activity (group).
For the compound `CC(=O)N[C@@H](Cc1ccccc1)C(=O)N[C@H]1CCCNC(=O)[C@H](Cc2ccccc2)NC(=O)[C@H](Cc2csc3ccccc23)NC(=O)[C@@H](CCC(C)C)NC(=O)[C@@H]2CCCN2C1=O` [Compound 197, Ac-Phe-[Orn-Pro-hle-Bta-Phe]] (Ac-F[Orn]P[d(hLeu)][Bta]F; lactam 2-C), the IC50 lay within 50 to 200 nM.

With `CC(C)CC[C@@H](NC(=O)[C@@H]1CCCN1C(=O)[C@H](CCCNC(N)=O)NC(=O)[C@H](Cc1ccccc1)NC(=O)c1cccnc1)C(=O)N[C@@H](Cc1csc2ccccc12)C(=O)N[C@@H](Cc1ccccc1)C(N)=O` [Compound 329, Fbn-Phe-Cit-Pro-hle-Bta-Phe-NH2] (Nicotinoyl-F[Cit]P[d(hLeu)][Bta]F-NH2), the IC50 was in the range of 50 to 200 nM.

Regarding `CC(=O)N[C@@H](Cc1ccccc1)C(=O)N[C@@H](CCCN)C(=O)N1CCC[C@H]1C(=O)N[C@H](CCC(C)C)C(=O)N[C@@H](Cc1csc2ccccc12)C(=O)NC1(C(N)=O)Cc2ccccc2C1` [Compound 273, Ac-Phe-Orn-Pro-hle-Bta-Aic-NH2] (Ac-F[Orn]P[d(hLeu)][Bta][Aic]-NH2), the IC50 is 50 to 200 nM.

With `CCCC[C@@H]1NC(=O)[C@H](Cc2c[nH]c3ccccc23)NC(=O)[C@@H](CC2CCCCC2)NC(=O)[C@@H]2C[C@@H](O)CN2C(=O)[C@@H](NC(=O)CCc2ccccc2)CCCNC1=O` [Compound 145, 3PP-[Orn-Hyp-cha-Trp-Nle]] (Hydrocinnamoyl-[Orn][Hyp][dCha]W[Nle]; lactam 1-C), the IC50 lay within 20 to 50 nM.

For the compound `CC(=O)N[C@@H](Cc1ccccc1)C(=O)N[C@@H](Cc1ccc(NC(=N)N)cc1)C(=O)N1CCC[C@H]1C(=O)N[C@H](CC1CCCCC1)C(=O)N[C@@H](Cc1csc2ccccc12)C(=O)N[C@@H](Cc1ccccc1)C(N)=O` [Compound 228, Ac-Phe-Guf-Pro-cha-Bta-Phe-NH2] (Ac-F[Phe(4-guanidino)]P[dCha][Bta]F-NH2), the IC50 fell in the range of 20 to 50 nM.

Take `CC(=O)N[C@@H](Cc1ccccc1)C(=O)N[C@@H](CCCN)C(=O)N1CCC[C@H]1C(=O)N[C@H](CCC(C)C)C(=O)N[C@@H](Cc1csc2ccccc12)C(=O)N[C@H](C(N)=O)C1CCCCC1` [Compound 275, Ac-Phe-Orn-Pro-hle-Bta-Chg-NH2] (Ac-F[Orn]P[d(hLeu)][Bta][Chg]-NH2): the IC50 was in the range of 50 to 200 nM.

As for `CC(C)CC[C@H]1NC(=O)[C@@H]2C[C@@H](O)CN2C(=O)[C@@H](NC(=O)[C@@H](N)Cc2ccccc2)CCCNC(=O)[C@H](CC(C)C)NC(=O)[C@H](Cc2c[nH]c3ccccc23)NC1=O` [Compound 368, H-Phe-[Orn-Hyp-hle-Trp-Leu]] (H-F[Orn][Hyp][d(hLeu)]WL; lactam 2-C), the IC50 is 20 to 50 nM.

On to `CC(=O)N[C@@H](Cc1ccccc1)C(=O)N[C@@H](CNC1=NCCN1)C(=O)N1CCC[C@H]1C(=O)N[C@H](CC1CCCCC1)C(=O)N[C@@H](Cc1csc2ccccc12)C(=O)N[C@@H](Cc1ccccc1)C(N)=O` [Compound 222, Ac-Phe-Fco-Pro-cha-Bta-Phe-NH2] (Ac-F[X4]P[dCha][Bta]F-NH2), for which the IC50 was in the range of 50 to 200 nM.

As for `CC(=O)N[C@@H](Cc1ccccc1)C(=O)N[C@@H](Cc1c[nH]cn1)C(=O)N1CCC[C@H]1C(=O)N[C@H](CC1CCCCC1)C(=O)N[C@@H](Cc1csc2ccccc12)C(=O)N[C@@H](Cc1ccccc1)C(N)=O` [Compound 230, Ac-Phe-His-Pro-cha-Bta-Phe-NH2] (Ac-FHP[dCha][Bta]F-NH2), the IC50 is 50 to 200 nM.

Turning to `CC(=O)N[C@@H](Cc1ccccc1)C(=O)N[C@@H](CCCN)C(=O)N[C@@H](CO)C(=O)N[C@H](CC1CCCCC1)C(=O)N[C@@H](Cc1c[nH]c2ccccc12)C(=O)N[C@@H](Cc1ccccc1)C(N)=O` [Compound 108, Ac-Phe-Orn-Ser-cha-Trp-Phe-NH2] (Ac-F[Orn]S[dCha]WF-NH2), the IC50 fell in the range of 20 to 50 nM.

As to `CC(=O)NCS(=O)(=O)C[C@H](NC(=O)[C@H](Cc1ccccc1)NC(C)=O)C(=O)N1CCC[C@H]1C(=O)N[C@H](CC1CCCCC1)C(=O)N[C@@H](Cc1csc2ccccc12)C(=O)N[C@@H](Cc1ccccc1)C(N)=O` [Compound 218, Ac-Phe-Eep-Pro-cha-Bta-Phe-NH2] (Ac-F[X7]P[dCha][Bta]F-NH2), the IC50 is 50 to 200 nM.

Still in this experiment, the particulars now being: functional assay of example 11; noteworthy = IC50 less than 200 nM.
As to `COCCOCCOCC(=O)O[C@@H]1C[C@H]2C(=O)N[C@H](CC3CCCCC3)C(=O)N[C@@H](Cc3c[nH]c4ccccc34)C(=O)N[C@@H](Cc3ccccc3)C(=O)NCCC[C@H](NC(=O)[C@H](Cc3ccccc3)NC(C)=O)C(=O)N2C1` [Ac-Phe-[Orn-Hyp(COCH2OCH2CH2OCH2CH2OCH3)-cha-Trp-Phe]] (Ac-F[Orn][Hyp](Decanoyl(3,6,9-trioxa))[dCha]WF; lactam 2-C), the “inhibitory activity (in words)” value was “noteworthy inhibitory activity”.
